Laboratory results from ChEMBL document CHEMBL1201862, “PubChem BioAssay data set” (2004).
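A five-concentration, 48-hour dose response in 96-well plates underlies each endpoint, interpolated linearly between surrounding concentrations. GI50: concentration for 50% inhibition of growth.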 Activity calls are given as the source filed them. Cut-off read from the data, not from the text of the source: active = GI50 up to about 1.1 µM and inactive = higher.

Assays:
Assay in all cases: inhibition of tumour cell growth, NCI panel, 48 h
[1] = test system: ACHN
[2] = test system: COLO 205
[3] = test system: EKVX
[4] = test system: HCT-116
[5] = test system: HCT-15
[6] = test system: HL-60
[7] = test system: KM12
[8] = test system: LOX IMVI
[9] = test system: M14
[10] = test system: Malme-3M
[11] = test system: NCI-H23
[12] = test system: NCI-H460
[13] = test system: SK-MEL-2
[14] = test system: SK-OV-3
[15] = test system: SNB-19
[16] = test system: UACC-62
[17] = test system: HOP-92
[18] = test system: OVCAR-8

| Compound | GI50 [1] | GI50 [2] | GI50 [3] | GI50 [4] | GI50 [5] [µM] | GI50 [6] | GI50 [7] | GI50 [8] | GI50 [9] | GI50 [10] | GI50 [11] | GI50 [12] | GI50 [13] | GI50 [14] | GI50 [15] | GI50 [16] | GI50 [17] | GI50 [18] |
| --- | --- | --- | --- | --- | --- | --- | --- | --- | --- | --- | --- | --- | --- | --- | --- | --- | --- | --- |
| O=C(CC1S/C(=N\c2ccccc2Cl)NC1=O)Nc1ccc(Cl)cc1 (stereo not drawn) | > 100 µM (inactive) | 26.4 µM (inactive) | > 100 µM (inactive) | > 100 µM (inactive) | 16.3 | 94.4 µM (inactive) | > 100 µM (inactive) | 99.3 µM (inactive) | > 100 µM (inactive) | > 100 µM (inactive) | > 100 µM (inactive) | > 100 µM (inactive) | > 100 µM (inactive) | > 100 µM (inactive) | > 100 µM (inactive) | > 100 µM (inactive) | – | – |
| CSc1nc(SC)c2c(C#N)n[nH]c2n1 | > 100 µM (inactive) | > 100 µM (inactive) | > 100 µM (inactive) | – | > 100 | – | > 100 µM (inactive) | > 100 µM (inactive) | > 100 µM (inactive) | > 100 µM (inactive) | > 100 µM (inactive) | > 100 µM (inactive) | > 100 µM (inactive) | > 100 µM (inactive) | > 100 µM (inactive) | > 100 µM (inactive) | 48.5 µM (inactive) | > 100 µM (inactive) |
| CC1(OCc2ccccc2)C(=O)N2C1NCC2(C)C (stereo not drawn) | > 100 µM (inactive) | > 100 µM (inactive) | > 100 µM (inactive) | > 100 µM (inactive) | > 100 | > 100 µM (inactive) | – | > 100 µM (inactive) | > 100 µM (inactive) | > 100 µM (inactive) | > 100 µM (inactive) | > 100 µM (inactive) | > 100 µM (inactive) | – | > 100 µM (inactive) | > 100 µM (inactive) | – | > 100 µM (inactive) |
| Cc1c(-c2cc(-c3ccccc3)n[nH]c2=O)c2ccccc2n1C | > 100 µM (inactive) | > 100 µM (inactive) | > 100 µM (inactive) | > 100 µM (inactive) | > 100 | > 100 µM (inactive) | > 100 µM (inactive) | – | > 100 µM (inactive) | > 100 µM (inactive) | > 100 µM (inactive) | > 100 µM (inactive) | > 100 µM (inactive) | > 100 µM (inactive) | > 100 µM (inactive) | > 100 µM (inactive) | > 100 µM (inactive) | > 100 µM (inactive) |
| CCOC(=O)C1=C(C)Nc2ccccc2S1 | > 100 µM (inactive) | 77.8 µM (inactive) | 14.3 µM (inactive) | > 100 µM (inactive) | > 100 | – | > 100 µM (inactive) | 94.8 µM (inactive) | > 100 µM (inactive) | > 100 µM (inactive) | > 100 µM (inactive) | > 100 µM (inactive) | > 100 µM (inactive) | > 100 µM (inactive) | > 100 µM (inactive) | 3.21 µM (inactive) | 44 µM (inactive) | – |
| C/C(CN1C(=O)c2ccccc2C1=O)=N\NS(=O)(=O)c1cccc(C(=O)O)c1 | > 100 µM (inactive) | > 100 µM (inactive) | > 100 µM (inactive) | > 100 µM (inactive) | > 100 | > 100 µM (inactive) | > 100 µM (inactive) | – | > 100 µM (inactive) | > 100 µM (inactive) | > 100 µM (inactive) | > 100 µM (inactive) | > 100 µM (inactive) | > 100 µM (inactive) | > 100 µM (inactive) | > 100 µM (inactive) | – | > 100 µM (inactive) |
| CC(C)c1cc(C(C)C)c(S(=O)(=O)NN)c(C(C)C)c1 | > 100 µM (inactive) | > 100 µM (inactive) | > 100 µM (inactive) | > 100 µM (inactive) | > 100 | – | > 100 µM (inactive) | 42.1 µM (inactive) | – | > 100 µM (inactive) | > 100 µM (inactive) | > 100 µM (inactive) | > 100 µM (inactive) | – | > 100 µM (inactive) | > 100 µM (inactive) | > 100 µM (inactive) | > 100 µM (inactive) |
| COc1nc(NC2OC(COC(C)=O)C(OC(C)=O)C(OC(C)=O)C2OC(C)=O)c(/N=C/C=N/c2c(NC3OC(COC(C)=O)C(OC(C)=O)C(OC(C)=O)C3OC(C)=O)nc(OC)[nH]c2=O)c(=O)[nH]1 (stereo not drawn) | > 100 µM (inactive) | > 100 µM (inactive) | > 100 µM (inactive) | > 100 µM (inactive) | – | > 100 µM (inactive) | > 100 µM (inactive) | > 100 µM (inactive) | > 100 µM (inactive) | > 100 µM (inactive) | > 100 µM (inactive) | – | – | > 100 µM (inactive) | > 100 µM (inactive) | > 100 µM (inactive) | > 100 µM (inactive) | > 100 µM (inactive) |
| COC(=O)[C@@H]1CCCCC[C@H]2C(CO)=C(C)C(=O)C12 (stereo partly drawn) | > 100 µM (inactive) | > 100 µM (inactive) | > 100 µM (inactive) | > 100 µM (inactive) | > 100 | > 100 µM (inactive) | > 100 µM (inactive) | – | > 100 µM (inactive) | > 100 µM (inactive) | > 100 µM (inactive) | > 100 µM (inactive) | > 100 µM (inactive) | > 100 µM (inactive) | > 100 µM (inactive) | > 100 µM (inactive) | > 100 µM (inactive) | > 100 µM (inactive) |
| O=C1C[C@@H]2[C@@H](C=CC23CC3)N1O | – | > 100 µM (inactive) | > 100 µM (inactive) | > 100 µM (inactive) | – | > 100 µM (inactive) | > 100 µM (inactive) | > 100 µM (inactive) | > 100 µM (inactive) | > 100 µM (inactive) | > 100 µM (inactive) | > 100 µM (inactive) | > 100 µM (inactive) | > 100 µM (inactive) | > 100 µM (inactive) | > 100 µM (inactive) | – | > 100 µM (inactive) |
| CO[C@@]1(c2ccccc2)O[C@H]2OCCC2[C@H]1c1ccc(Cl)cc1 (stereo partly drawn) | 34 µM (inactive) | 20 µM (inactive) | 24.7 µM (inactive) | 27.6 µM (inactive) | 36.1 | – | 47 µM (inactive) | 32.4 µM (inactive) | 37.6 µM (inactive) | 28.5 µM (inactive) | 30.4 µM (inactive) | 23.2 µM (inactive) | 31.8 µM (inactive) | – | 40.1 µM (inactive) | 34.2 µM (inactive) | – | 33.7 µM (inactive) |
| C=C1C(OC(=O)/C=C/c2ccccc2)CC(OC(C)=O)C2(C)C1CC1CC(OC(C)=O)C(C)=C(C(OC(C)=O)C2OC(C)=O)C1(C)C (stereo not drawn) | – | 34 µM (inactive) | – | 3.79 µM (inactive) | 5.41 | 2.07 µM (inactive) | 8.59 µM (inactive) | > 100 µM (inactive) | > 100 µM (inactive) | > 100 µM (inactive) | – | 6.67 µM (inactive) | – | > 100 µM (inactive) | > 100 µM (inactive) | > 100 µM (inactive) | > 100 µM (inactive) | > 100 µM (inactive) |
| NCCCNCCCCN(CCCN)/[N+]([O-])=N\O | > 100 µM (inactive) | > 100 µM (inactive) | > 100 µM (inactive) | > 100 µM (inactive) | > 100 | > 100 µM (inactive) | > 100 µM (inactive) | – | > 100 µM (inactive) | > 100 µM (inactive) | > 100 µM (inactive) | > 100 µM (inactive) | > 100 µM (inactive) | – | > 100 µM (inactive) | > 100 µM (inactive) | > 100 µM (inactive) | > 100 µM (inactive) |
